Common to all, as to format: in vivo
Assay [1] concerns Monochoria vaginalis. Put plainly: Test Example 12: herbicidal effect test by treatment during growing period in paddy field. The following applies: 120 g/10a; treatment seven days after sowing in flooded paddy pot; assessed 14 days after treatment. Put shortly: (§1)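 Water-diluted emulsifiable concentrate added dropwise to flooded pots (~3 cm water) 7 d after sowing; rate 120 g active ingredient per 10 are. Weeds grown from 30 seeds each in puddled paddy soil under greenhouse conditions. Dry-weight suppression rate relative to untreated plots determined 14 d after treatment, duplicates.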

Assay [2] has as its system Scirpus juncoides. Described as above. To be noted: 120 g/10a; treatment seven days after sowing in flooded paddy pot; assessed 14 days after treatment. Put shortly: as §1
For assay [3], the system named is Echinochloa crus-galli. The assay is described as above. The following applies: 120 g/10a; treatment seven days after sowing in flooded paddy pot; assessed 14 days after treatment. Put shortly:
as §1

Assay [4] deals with Lindernia pyxidaria. Described as above. To be noted: 120 g/10a; treatment seven days after sowing in flooded paddy pot; assessed 14 days after treatment. In short, it runs like this:
as §1

The test system of assay [5] is Monochoria vaginalis. The experiment in a line: Test Example 11: herbicidal effect test by soil treatment in paddy field. To be noted: 120 g/10a active ingredient, 14 days after treatment. In short, it runs like this: (§2)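 Pre-emergence paddy test, 120 g a.i./10 are, emulsifiable concentrate diluted in water and added dropwise to ~3 cm flood water right after sowing (30 seeds/species, 0–1 cm depth, fertilized puddled soil). Greenhouse; 2 replicates; dry-weight suppression (%) vs untreated, day 14.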

Assay [6] concerns Scirpus juncoides. The assay is described as above. The following applies: 120 g/10a active ingredient, 14 days after treatment. Put shortly: as §2
Assay [7] has as its system Echinochloa crus-galli. The assay is described as above. The following applies: 120 g/10a active ingredient, 14 days after treatment. Put shortly: as §2
For assay [8], the system named is Lindernia pyxidaria. The description is as above. To be noted: 120 g/10a active ingredient, 14 days after treatment. Put shortly: as §2
The next assay relates to Chenopodium album. Put plainly: Test Example 14: herbicidal effect test by foliage treatment in upland field. To be noted: 7 days after sowing, 120 g/10a, 14 days after treatment. The procedure: (§3) A pot having a size of 36 cm^2 was filled with field soil (alluvial soil) and after uniformly mixing the soil of the surface layer of 1 cm with 20 grains of each weed seed of crabgrass, Echinochloa crus-galli, Chenopodium album and Amaranthus viridis, the surface layer was pressed lightly. Seven Days after the sowing, an emulsifiable concentrate prepared according to Formulation Example 15 by using the compound shown in Table 12 below was diluted with water, and the water-diluted formulation was sprayed on the soil surface at a ratio of 100 liter per 10 are. The application rate of the active ingredient, by conversion, corresponded to 120 g per 10 are. Fourteen Days after the formulation treatment, the herbicidal effect was evaluated by the same criteria as in Test Example 11.

For the next assay, the system named is crabgrass. Described as above. To be noted: 7 days after sowing, 120 g/10a, 14 days after treatment. Here is the method: as §3
Assay [9] deals with Echinochloa crus-galli. The assay is described as above. To be noted: 7 days after sowing, 120 g/10a, 14 days after treatment. The procedure: (§4) This test was performed with two replications per one formulation concentration plot, and 14 days after the formulation treatments, the weed suppression rate (%) was determined according to the following equation (Math. 2). Weed suppression rate (%)=(1−average dry weight (g) of plants in treated plots/average dry weight (g) of plants in untreated plots)×100 [Math. 2]
as §3

The next assay has as its system Amaranthus viridis. The assay is described as above. The following applies: 7 days after sowing, 120 g/10a, 14 days after treatment. Here is the method:
as §4, §3

`CC(C)N(C(=O)n1cnn(S(=O)(=O)C2CC2)c1=O)c1ccc(F)cc1Cl` [Compound 11-205]: the “Weed suppression rate (%) Monochoria vaginalis” value is given as 100% in the assay on Monochoria vaginalis [1] and 90% with Monochoria vaginalis [5]. In addition, the “Weed suppression rate (%) Scirpus juncoides” value in the assay on Scirpus juncoides [2] and with Scirpus juncoides [6] was 100% in each case. Also, the “Weed suppression rate (%) Echinochloa crus-galli” value in the assay with Echinochloa crus-galli [3] and in the assay on Echinochloa crus-galli [7] was 100% throughout. Moreover, the “Weed suppression rate (%) Lindemia pyxidaria” value in the assay with Lindernia pyxidaria [4] turned out to be 80%; in the assay on Lindernia pyxidaria [8], 100%. The “herbicidal effect, Chenopodium album” value with Chenopodium album is on record as 70%. In addition, the “herbicidal effect, Crabgrass” value in the assay with crabgrass came out at 100%. For the same compound, in the assay with Echinochloa crus-galli [9], the “herbicidal effect, Echinochloa crus-galli” value was 100%. In addition, the “herbicidal effect, Amaranthus viridis” value with Amaranthus viridis is on record as 70%.
As to `CC(C)N(C(=O)n1cnn(S(=O)(=O)C2CC2)c1=O)c1ccc(Cl)cc1F` [Compound 11-206], the figures for the “Weed suppression rate (%) Monochoria vaginalis” value in the assay with Monochoria vaginalis [1] and in the assay with Monochoria vaginalis [5] were 90% and 100%, respectively. In addition, the “Weed suppression rate (%) Scirpus juncoides” value came to 90% in the assay with Scirpus juncoides [2] and 100% in the assay on Scirpus juncoides [6]. For the same compound, the “Weed suppression rate (%) Echinochloa crus-galli” value with Echinochloa crus-galli [3] and in the assay with Echinochloa crus-galli [7] was 100% throughout. The “Weed suppression rate (%) Lindemia pyxidaria” value was 90% with Lindernia pyxidaria [4] and 100% in the assay on Lindernia pyxidaria [8]. In addition, in the assay with Chenopodium album, the “herbicidal effect, Chenopodium album” value was 60%. Further, the “herbicidal effect, Crabgrass” value in the assay on crabgrass is on record as 90%. In addition, the “herbicidal effect, Echinochloa crus-galli” value in the assay with Echinochloa crus-galli [9] worked out at 90%. In the assay with Amaranthus viridis, the “herbicidal effect, Amaranthus viridis” value was 60%.
Take `CC(C)N(C(=O)n1cnn(S(=O)(=O)c2ccccc2F)c1=O)c1ccccc1` [Compound 11-391]: the “Weed suppression rate (%) Monochoria vaginalis” value worked out at 80% with Monochoria vaginalis [1] and 60% in the assay on Monochoria vaginalis [5]. Further, the “Weed suppression rate (%) Scirpus juncoides” value in the assay with Scirpus juncoides [2] and in the assay with Scirpus juncoides [6] was 80% in each case. In addition, the “Weed suppression rate (%) Echinochloa crus-galli” value in the assay with Echinochloa crus-galli [3] and in the assay with Echinochloa crus-galli [7] was 90% each time. The “Weed suppression rate (%) Lindemia pyxidaria” value with Lindernia pyxidaria [4] and in the assay on Lindernia pyxidaria [8] was 80% each time. Further, the “herbicidal effect, Chenopodium album” value in the assay with Chenopodium album turned out to be 40%. The “herbicidal effect, Crabgrass” value in the assay on crabgrass was determined as 90%. The “herbicidal effect, Echinochloa crus-galli” value in the assay with Echinochloa crus-galli [9] came out at 60%. Besides, the “herbicidal effect, Amaranthus viridis” value with Amaranthus viridis came to 40%.
Turning to `CC(C)N(C(=O)n1cnn(S(=O)(=O)C(C)C)c1=O)c1ccc(Cl)cc1Br` [Compound 11-71], the “Weed suppression rate (%) Monochoria vaginalis” value with Monochoria vaginalis [1] and in the assay on Monochoria vaginalis [5] was 70% throughout. Also, the “Weed suppression rate (%) Scirpus juncoides” value with Scirpus juncoides [2] and in the assay with Scirpus juncoides [6] was 100% throughout. The “Weed suppression rate (%) Echinochloa crus-galli” value in the assay on Echinochloa crus-galli [3] and with Echinochloa crus-galli [7] was 100% each time. For the same compound, the “Weed suppression rate (%) Lindemia pyxidaria” value in the assay on Lindernia pyxidaria [4] was 70%; in the assay with Lindernia pyxidaria [8] it was 90%. Also, in the assay on Chenopodium album, the “herbicidal effect, Chenopodium album” value is reported as 70%. The “herbicidal effect, Crabgrass” value with crabgrass worked out at 100%. Moreover, in the assay with Echinochloa crus-galli [9], the “herbicidal effect, Echinochloa crus-galli” value came out at 100%. The “herbicidal effect, Amaranthus viridis” value with Amaranthus viridis came out at 60%.
Take `CC(C)N(C(=O)n1cnn(S(=O)(=O)c2cccc(C(F)(F)F)c2)c1=O)c1ccc(Cl)cc1Br` [Compound 11-735]: the “Weed suppression rate (%) Monochoria vaginalis” value with Monochoria vaginalis [1] and with Monochoria vaginalis [5] was 90% in each case. Besides, the “Weed suppression rate (%) Scirpus juncoides” value in the assay on Scirpus juncoides [2] and in the assay on Scirpus juncoides [6] was 100% in each case. Also, the “Weed suppression rate (%) Echinochloa crus-galli” value in the assay on Echinochloa crus-galli [3] and with Echinochloa crus-galli [7] was 100% in each case. The “Weed suppression rate (%) Lindemia pyxidaria” value in the assay on Lindernia pyxidaria [4] and in the assay on Lindernia pyxidaria [8] was 90% each time. Also, in the assay on Chenopodium album, the “herbicidal effect, Chenopodium album” value was found to be 70%. Moreover, in the assay on crabgrass, the “herbicidal effect, Crabgrass” value turned out to be 100%. Also, in the assay on Echinochloa crus-galli [9], the “herbicidal effect, Echinochloa crus-galli” value worked out at 60%. The “herbicidal effect, Amaranthus viridis” value with Amaranthus viridis was 70%.
Regarding `Cc1ccc(S(=O)(=O)n2ncn(C(=O)N(c3ccc(Cl)cn3)C(C)C)c2=O)cc1` [Compound 11-661], the “Weed suppression rate (%) Monochoria vaginalis” value was found to be 100% in the assay with Monochoria vaginalis [1] and 80% with Monochoria vaginalis [5]. The “Weed suppression rate (%) Scirpus juncoides” value in the assay on Scirpus juncoides [2] and in the assay with Scirpus juncoides [6] was 90% each time. For the same compound, the “Weed suppression rate (%) Echinochloa crus-galli” value in the assay with Echinochloa crus-galli [3] and in the assay on Echinochloa crus-galli [7] was 100% in each case. The “Weed suppression rate (%) Lindemia pyxidaria” value in the assay on Lindernia pyxidaria [4] and in the assay on Lindernia pyxidaria [8] was 100% in each case. The “herbicidal effect, Chenopodium album” value in the assay with Chenopodium album is given as 0%. Further, the “herbicidal effect, Crabgrass” value with crabgrass is given as 70%. Moreover, the “herbicidal effect, Echinochloa crus-galli” value in the assay on Echinochloa crus-galli [9] worked out at 90%. For the same compound, the “herbicidal effect, Amaranthus viridis” value in the assay on Amaranthus viridis came to 0%.
In the case of `CC(C)N(C(=O)n1cnn(S(C)(=O)=O)c1=O)c1c(F)c(F)cc(F)c1F` [Compound 11-17], the entries for the “Weed suppression rate (%) Monochoria vaginalis” value with Monochoria vaginalis [1] and in the assay on Monochoria vaginalis [5] were 100% and 80%, respectively. In addition, the “Weed suppression rate (%) Scirpus juncoides” value with Scirpus juncoides [2] and in the assay on Scirpus juncoides [6] was 100% throughout. Also, the “Weed suppression rate (%) Echinochloa crus-galli” value in the assay on Echinochloa crus-galli [3] and in the assay with Echinochloa crus-galli [7] was 100% throughout. Further, the “Weed suppression rate (%) Lindemia pyxidaria” value is reported as 70% in the assay with Lindernia pyxidaria [4] and 90% with Lindernia pyxidaria [8]. In addition, in the assay with Chenopodium album, the “herbicidal effect, Chenopodium album” value is on record as 30%. Also, in the assay on crabgrass, the “herbicidal effect, Crabgrass” value is 60%. Moreover, in the assay with Echinochloa crus-galli [9], the “herbicidal effect, Echinochloa crus-galli” value is 70%. In addition, the “herbicidal effect, Amaranthus viridis” value in the assay on Amaranthus viridis is 100%.
Turning to `CC(C)N(C(=O)n1cnn(S(=O)(=O)N(C)C)c1=O)c1ccc(Cl)cc1F` [Compound 11-1072], the “Weed suppression rate (%) Monochoria vaginalis” value is 60% in the assay on Monochoria vaginalis [1] and 80% with Monochoria vaginalis [5]. Also, the “Weed suppression rate (%) Scirpus juncoides” value in the assay on Scirpus juncoides [2] and in the assay on Scirpus juncoides [6] was 90% in each case. In addition, the “Weed suppression rate (%) Echinochloa crus-galli” value in the assay with Echinochloa crus-galli [3] is reported as 100%; with Echinochloa crus-galli [7], 90%. Further, the “Weed suppression rate (%) Lindemia pyxidaria” value with Lindernia pyxidaria [4] is 90%; in the assay with Lindernia pyxidaria [8], 80%. The “herbicidal effect, Chenopodium album” value in the assay on Chenopodium album is reported as 80%. Also, the “herbicidal effect, Crabgrass” value in the assay with crabgrass came out at 90%. Also, the “herbicidal effect, Echinochloa crus-galli” value in the assay on Echinochloa crus-galli [9] came to 80%. Besides, the “herbicidal effect, Amaranthus viridis” value in the assay with Amaranthus viridis amounted to 90%.
Regarding `Cc1ccc(S(=O)(=O)n2ncn(C(=O)N(c3c(F)cc(F)cc3F)C(C)C)c2=O)cc1` [Compound 11-641], the “Weed suppression rate (%) Monochoria vaginalis” value in the assay with Monochoria vaginalis [1] was 90%; with Monochoria vaginalis [5] it was 80%. In addition, the “Weed suppression rate (%) Scirpus juncoides” value in the assay on Scirpus juncoides [2] and in the assay with Scirpus juncoides [6] was 100% in each case. Further, the “Weed suppression rate (%) Echinochloa crus-galli” value in the assay with Echinochloa crus-galli [3] and in the assay on Echinochloa crus-galli [7] was 100% throughout. In addition, the “Weed suppression rate (%) Lindemia pyxidaria” value came to 80% in the assay with Lindernia pyxidaria [4] and 100% in the assay with Lindernia pyxidaria [8]. Moreover, the “herbicidal effect, Chenopodium album” value in the assay with Chenopodium album is given as 70%. Besides, the “herbicidal effect, Crabgrass” value with crabgrass turned out to be 90%. In addition, in the assay with Echinochloa crus-galli [9], the “herbicidal effect, Echinochloa crus-galli” value turned out to be 100%. In addition, in the assay on Amaranthus viridis, the “herbicidal effect, Amaranthus viridis” value is given as 60%.

The values are drawn from patent publication US11076595B2, “1-(n,n-disubstituted carbamoyl) 4-(substituted sulfonyl)triazolin-5-one derivative, 4-(n,n-disubstituted carbamoyl) 1-(substituted sulfonyl)triazolin-5-one derivative, and herbicide containing said derivative as active ingredient” (HOKKO CHEMICAL INDUSTRY CO., LTD., priority 2017, dated 2021).
